Assay results: patent US5100670A, “Use of a bacitracin fraction as a growth promoting agent” (Protor Co., priority 1989, dated 1992)

Assays:
insulinase = insulinase inhibitory activity measurement (method of Duckworth et al.); type: biochemical; conditions: for anti-insulinase activity: general statement in the description; for insulinase inhibitory activity: peaks from CM-Sepharose column, Example 1
Description: The desired fraction is believed to have a molecular weight of about 1400, approximately the same as bacitracin A or F. Their anti-insulinase and antibacterial activities can be assayed in conventional manner. For example, the insulinase inhibitory activity was measured according to the method of Duckworth, et al., Proc. Nat. Acad. Sci., 69, 3698-3702 (1972) and the anti-bacterial activity by the method of Patrick, et al., Antibiotics and Chemotherapy, 1, 133-137 (1951).
A 350 ml bed volume cf CM-Sepharose in a packed column (2.8×56 cm) was equilibrated with 0.05M ammonium acetate, pH 4.5. One gram of commercial bacitracin dissolved in 50 ml of buffer was applied to the packed column. The material was eluted with 2 liter of equilibrating buffer followed by 350 ml of 1M ammonium acetate pH 4.5 buffer. Five ml fractions were collected and absorbance measurements at 252, 280 and 290 nm were made. In addition, insulinase inhibitory activity measurements were made on each peak. […] The peaks were collected, lyophilized, weighed and dissolved in water at 5 mg/ml concentration for specific activity measurements. The material collected with the second buffer contained 5-10% of the total weight of the applied material and 90% of the total insulinase inhibitory capacity. The specific activity of this material was 10-12 times that of the starting commercial material.

[1] = by the protease insulinase; cited from earlier work

| Substance | anti-insulinase activity (insulinase) | insulinase inhibitory activity (insulinase) | t1/2 of destruction of insulin after injection [1] |
| --- | --- | --- | --- |
| bacitracin A | substantially no anti-insulinase activity | negligible |  |
| bacitracin F | substantially no anti-insulinase activity | negligible |  |
| insulin |  |  | approximately 40 minutes |
